Reference: patent US11981666B2, “GLP-1 receptor agonist and composition and use thereof” (HANGZHOU ZHONGMEIHUADONG PHARMACEUTICAL CO., LTD., priority 2021, dated 2024)
“And” between values parts separate entries of the source, which are not always exact repeats. Equal values may be shown once. Read-outs that look alike come from different tables or passages of the source.

Assays:
Human GLP-1R = molecular target: T1, Human GLP-1R (Homo sapiens, UniProt P43220); test: GLP-1R agonistic activity assay (HTRF cAMP, 293A GFP-GLP-1R cells); assay type: cell-based; conditions: cAMP level, geometric mean
T1 construct: expressed in transfected cells
Source text: The method was a competitive immunoassay.

hERG potassium channels = molecular target: T2, hERG potassium channels (Homo sapiens, UniProt Q12809); test: Test for inhibition of hERG potassium channels (whole-cell patch clamp, HEK-293-hERG cells); assay type: cell-based; conditions: for hERG (IR): inhibition rate of tail current
T2 construct: expressed in transfected cells; host or cells: HEK-293-hERG cells
Source text: Positive control: Amitriptyline hydrochloride or Terfenadine

[1] = Metabolic stability in (human) liver microsomes; assay type: in vitro ADME; conditions: pH 7.4, test concentration 1 μM
Procedure: 3×NADPH stock solution (6 mM, 5 mg/mL) was prepared by dissolving NADPH in the buffer solution; 4. 30 μL of 1.5 μM additive solution containing 0.75 mg/mL microsomal solution was distributed to the plates designated for different time points (0, 5, 15, 30, 45 minutes); 5. at 0 min, 150 μL of ACN containing IS was added to the wells of the plate, followed by addition of 15 μL of NADPH stock solution (6 mM, step 3); 6. all other plates were pre-incubated at 37° C. for 5 minutes; 7. adding 15 μL of NADPH stock solution to the plate to start the reaction and timing; 8. 150 μL of ACN containing IS was added to the wells of the corresponding plates to stop the reaction at 5 min, 15 min, 30 min and 45 min, respectively; 9. after quenching, the plates were shaken on a shaker for 10 minutes (600 rpm/min) and then centrifuged at 6000 rpm for 15 minutes; 10. 80 μL of supernatant was transferred from each well to a 96-well sample plate containing 140 μL water for LC/MS analysis.
Detection method: LC-MS/MS-11 (8050), internal standard: tolbutamide; MS conditions: positive ion ESI for testosterone and test compound, and negative ion ESI for tolbutamide; Mobile phases: mobile phase A is 0.1% FA in water, and mobile phase B is 0.1% FA in ACN; Column and specification: ACQUITY UPLC HSS T3 1.8 um 2.1*50 mm.

[2] = Caco-2 cell transport experiment; assay type: in vitro ADME; conditions: human
Procedure: Caco-2 cells, 77th passage; HBSS, Lot: G210713; ACN+IS (tolbutamide 200 ng/mL); Caco-2 was inoculated on polyethylene (PET) in a 96-well Falcon plate at 2×10^5 cells/cm^2 until a confluent cell monolayer was formed on day 21-28. The culture medium was changed every 3-4 days. The test compound was diluted to a concentration of 10 uM with a transport buffer of 10 mM stock solution (HBSS without BSA) and applied to the apical side or the basolateral side of the cell monolayer. Incubation was carried out at 37° C., 5% CO2, and 95% relative humidity for 120 minutes, and the permeability of the test compound from the A to B direction or the B to A direction was determined in duplicate. The efflux ratio of each compound was determined. Test and reference compounds were quantitated by LC-MS/MS analysis based on the analyte/IS peak area ratio. […] [table]

ICR mice [3] = test: Toxicological experiment in mice, 14-day repeated oral gavage (toxicity study); assay type: in vivo; conditions: for non-toxic response dose level: ICR mice, gavage once a day for 14 consecutive days; for biochemical analysis of serum: compared to vehicle control
Procedure: (§1) Experimental method: 212 ICR mice (SPF grade), half male and half female. Animals in groups 1-5 were used for toxicity study, with 10 male and 10 female animals in each group; and animals in groups 6-9 were used for toxicokinetic study, with 14 male and 14 female animals in each group (2 of them were spare animals). […] Animals in Groups 1-9 were administered orally once a day for 14 consecutive days.

[4] = Toxicological experiment in mice, 14-day repeated oral gavage (toxicokinetic study); assay type: in vivo, mouse; conditions: ICR, mouse, po, 200 mg/kg, Day 14; for AUC(0-t): plasma
Procedure: as §1

ICR mice [5] = test: as above; assay type: in vivo, mouse; conditions: toxicokinetic study, 200 mg/kg oral once a day for 14 days
Procedure: as §1

[6] = Pharmacokinetic experiment in cynomolgus monkeys; assay type: in vivo, cynomolgus monkey; conditions: for Vd: read-out: Vss; for F: oral 20 mg/kg vs intravenous 2 mg/kg
Procedure: Experimental objective: To evaluate the pharmacokinetic profile of compound 1 and compare it with compound 20 (control compound).
Experimental method: 6 male Non-juvenile cynomolgus monkeys, 4˜5 kg, were purchased from Huazheng Experimental Animal Center. Group IV was administered intravenously at a dose of 2 mg/kg (5 mL/kg) (n=3), and the group PO was administered orally at a dose of 20 mg/kg (10 mL/kg) (n=3). Approximately 500 μL blood was collected from cephalic vein and saphenous vein at each experimental time point, and centrifuged at 2,000 g for 5 min (4° C.) within 15 min after sampling for subsequent analysis.

[7] = female, plasma of female animals, read-out: AUC(0-t), the systemic exposure (first value listed)
[8] = male, plasma of male animals, read-out: AUC(0-t), the systemic exposure (first value listed)
[9] = intravenous 2 mg/kg, male, individual animals #1, #2, #3, 2 mg/kg
[10] = male, cynomolgus monkey, plasma, iv, 2 mg/kg, intravenous 2 mg/kg, Mean (n=3)
[11] = male, cynomolgus monkey, plasma, iv, 2 mg/kg, intravenous 2 mg/kg, individual animals #1, #2, #3
[12] = male, cynomolgus monkey, plasma, po, 20 mg/kg, oral 20 mg/kg, Mean (n=3)
[13] = oral 20 mg/kg, male, individual animals #4, #5, #6, 20 mg/kg

T2 sequence (Q12809 whole entry): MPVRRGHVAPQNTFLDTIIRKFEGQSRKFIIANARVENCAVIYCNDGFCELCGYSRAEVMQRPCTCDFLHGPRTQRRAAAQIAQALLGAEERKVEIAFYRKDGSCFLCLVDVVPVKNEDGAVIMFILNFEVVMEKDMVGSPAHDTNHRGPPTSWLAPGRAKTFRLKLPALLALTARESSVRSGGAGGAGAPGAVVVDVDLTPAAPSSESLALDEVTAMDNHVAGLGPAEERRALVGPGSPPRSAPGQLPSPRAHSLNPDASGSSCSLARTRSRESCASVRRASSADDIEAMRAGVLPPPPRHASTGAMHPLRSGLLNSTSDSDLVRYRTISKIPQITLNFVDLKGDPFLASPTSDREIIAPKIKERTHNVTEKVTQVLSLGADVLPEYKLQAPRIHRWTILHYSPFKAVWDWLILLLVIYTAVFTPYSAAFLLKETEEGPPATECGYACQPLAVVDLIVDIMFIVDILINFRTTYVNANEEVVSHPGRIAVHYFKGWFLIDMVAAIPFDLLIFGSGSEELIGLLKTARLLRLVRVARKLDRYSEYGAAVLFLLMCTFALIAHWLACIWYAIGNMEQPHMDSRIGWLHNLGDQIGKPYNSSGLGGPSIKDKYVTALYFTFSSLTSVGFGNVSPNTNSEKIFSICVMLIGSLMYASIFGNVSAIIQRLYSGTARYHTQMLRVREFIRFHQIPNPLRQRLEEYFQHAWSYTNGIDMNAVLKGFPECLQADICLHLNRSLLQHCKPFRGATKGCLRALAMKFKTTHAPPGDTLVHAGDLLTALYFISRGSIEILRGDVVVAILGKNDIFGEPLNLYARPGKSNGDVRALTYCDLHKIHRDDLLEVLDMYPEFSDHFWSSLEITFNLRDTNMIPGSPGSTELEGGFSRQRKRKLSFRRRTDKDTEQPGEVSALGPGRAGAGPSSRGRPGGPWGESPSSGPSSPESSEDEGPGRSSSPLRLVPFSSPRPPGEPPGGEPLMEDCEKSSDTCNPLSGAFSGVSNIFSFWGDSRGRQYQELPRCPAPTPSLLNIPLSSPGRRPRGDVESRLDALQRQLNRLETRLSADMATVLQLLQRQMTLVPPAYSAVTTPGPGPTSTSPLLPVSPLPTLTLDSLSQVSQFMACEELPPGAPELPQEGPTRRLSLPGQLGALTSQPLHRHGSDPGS
T1 sequence (P43220 24-463): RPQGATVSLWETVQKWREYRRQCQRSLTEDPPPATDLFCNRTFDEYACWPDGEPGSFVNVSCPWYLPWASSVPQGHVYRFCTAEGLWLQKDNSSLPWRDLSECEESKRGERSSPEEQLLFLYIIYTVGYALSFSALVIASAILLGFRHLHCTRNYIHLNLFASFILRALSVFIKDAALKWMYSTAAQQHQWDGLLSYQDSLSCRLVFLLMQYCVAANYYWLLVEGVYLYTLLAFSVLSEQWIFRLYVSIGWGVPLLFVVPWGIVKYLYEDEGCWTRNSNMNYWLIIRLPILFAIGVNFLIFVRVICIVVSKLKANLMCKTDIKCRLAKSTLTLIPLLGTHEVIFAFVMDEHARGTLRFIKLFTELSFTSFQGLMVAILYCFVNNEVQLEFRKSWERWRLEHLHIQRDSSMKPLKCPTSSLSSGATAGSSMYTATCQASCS

Compound: O=C(O)c1ccc2nc(CN3CCC(c4cccc(OCc5ccc(C6COC6)cc5F)n4)CC3)n(C[C@@H]3CCO3)c2c1 [Compound 1, (S)-2-((4-(6-((2-fluoro-4-(oxetan-3-yl)benzyl)oxy)pyridin-2-yl)piperidin-1-yl)methyl)-1-(oxetan-2-ylmethyl)-1H-benzo[d]imidazole-6-carboxylic acid]
- EC50 (Human GLP-1R): 0.03 nM
- IC50 (hERG potassium channels): 15.9 µM
- hERG inhibitory activity (conclusion) (hERG potassium channels): Did not Exhibit hERG Inhibitory Activity
- hERG (IR) (hERG potassium channels; 1 μM): 3.75% (1 μM)
- hERG (IR) (hERG potassium channels; 10 μM): 40.7 (10 μM) %
- half-life at 1 μM [1]: 130 min
- efflux ratio at 120 min, 10 uM ([2]; Papp(BA)/Papp(AB)): 5.26
- Papp A→B at 120 min, 10 uM ([2]; apical to basolateral, 10 uM, 120 minutes): 3.14 ×10⁻⁶ cm/s
- Papp B→A at 120 min, 10 uM ([2]; basolateral to apical, 10 uM, 120 minutes): 16.5 ×10⁻⁶ cm/s
- non-toxic response dose level (ICR mice [3]): 200 mg/kg
- toxicological effects on experimental animals (conclusion) (ICR mice [3]; at the studied dose (200 mg/kg)): no significant toxicological effects
- biochemical analysis of serum (ICR mice [3]): no significant toxicological changes
- clinical observation (ICR mice [3]; toxicity study, 100 mg/kg, presumed not related to the test compound): occasionally showed abnormal gait, decreased activity, piloerection and traumatic abnormalities
- Cmax ([4]; plasma of female animals): 117 µg/mL
- Cmax ([4]; plasma of male animals): 81 µg/mL
- AUC(0-t) ([4]; female, plasma of female animals, read-out: AUC(0-t) (second value listed)): 271 µg·h/mL
- AUC(0-t) [4, 7]: 291 µg·h/mL
- AUC(0-t) ([4]; male, plasma of male animals, read-out: AUC(0-t) (second value listed)): 200 µg·h/mL
- AUC(0-t) [4, 8]: 218 µg·h/mL
- animals found dead (ICR mice [5]; female animals): 1/14
- pharmacokinetic profile, orally administered (conclusion) ([6]; compared with control compound 20): significantly better than that of the control compound 20
- AUCINF [6, 9]: 14.9 hr * μM and 13.0 hr * μM and 8749 hr * ng/ml and 7622 hr * ng/ml
- AUClast [6, 9]: 14.9 hr * μM and 13.0 hr * μM and 15215 hr * ng/ml and 8739 hr * ng/ml and 7607 hr * ng/ml
- CL [6, 9]: 2.19 mL/min/kg and 3.81 mL/min/kg and 4.37 mL/min/kg and 2.18 mL/min/kg and 3.82 mL/min/kg
- MRTINF [6, 9]: 0.247 h and 0.242 h
- T1/2 [6, 9]: 1.46 h and 1.50 h
- Vss [6, 9]: 0.0564 L/kg and 0.0635 L/kg
- AUC(0-inf) [6, 10]: 18 µM·h and 10500 ng·h/mL
- AUC(0-t) [6, 10]: 17.9 µM·h and 10500 ng·h/mL
- MRT inf [6, 10]: 17.5 min
- clearance [6, 10]: 3.46 mL/min/kg
- half-life [6, 10]: 83.4 min
- AUC(0-inf) [6, 11]: 26 µM·h and 15200 ng·h/mL
- AUC(0-t) [6, 11]: 26 µM·h
- MRT inf [6, 11]: 23.2 min
- half-life [6, 11]: 73.8 min
- Vd ([6]; male, cynomolgus monkey, plasma, iv, 2 mg/kg, intravenous 2 mg/kg, male, Mean (n=3)): 0.0569 L/kg
- Vd ([6]; male, cynomolgus monkey, plasma, iv, 2 mg/kg, intravenous 2 mg/kg, male, individual animals #1, #2, #3): 0.0508 L/kg
- AUC(0-inf) [6, 12]: 61.8 µM·h and 36200 ng·h/mL
- AUC(0-t) [6, 12]: 34500 ng·h/mL and 58.9 µM·h
- MRT inf [6, 12]: 403 min
- half-life [6, 12]: 319 min
- Cmax ([6]; male, cynomolgus monkey, plasma, po, 20 mg/kg, oral 20 mg/kg, male, Mean (n=3), read-out: Cmax): 12700 ng/mL and 21.6 µM
- Tmax ([6]; male, cynomolgus monkey, plasma, po, 20 mg/kg, oral 20 mg/kg, male, Mean (n=3), read-out: Tmax): 1.67 h
- Tmax ([6]; male, cynomolgus monkey, plasma, po, 20 mg/kg, oral 20 mg/kg, male, individual animals #4, #5, #6, read-out: Tmax): 2 h
- oral bioavailability (conclusion) ([6]; oral 20 mg/kg): high oral bioavailability
- F ([6]; male, Mean (n=3)): 32.8%
- F ([6]; male, individual animals #4, #5, #6): 40.5% and 16.2% and 41.8%
- AUCINF [6, 13]: 72.8 hr * μM and 37.3 hr * μM and 75.2 hr * μM and 42676 hr * ng/ml and 21853 hr * ng/ml and 44083 hr * ng/ml
- AUClast [6, 13]: 72.6 hr * μM and 29.0 hr * μM and 75.1 hr * μM and 42563 hr * ng/ml and 17014 hr * ng/ml and 44038 hr * ng/ml
- Cmax [6, 13]: 12500 ng/mL and 2270 ng/mL and 23200 ng/mL
- MRTINF [6, 13]: 3.15 h and 14.5 h and 2.47 h
- T1/2 [6, 13]: 3.03 h and 10.4 h and 2.52 h
- Tmax [6, 13]: 1.00 h

Compound: N#Cc1ccc(COc2cccc(C3CCN(Cc4nc5ccc(C(=O)O)cc5n4C[C@@H]4CCO4)CC3)n2)c(F)c1 [Compound 20, 2-[(4-{6-[(4-cyano-2-fluorophenyl)methoxy]pyridin-2-yl}piperidin-1-yl)methyl]-1-{[(2S)-oxetan-2-yl]methyl}-1H-1,3-benzodiazole-6-carboxylic acid, reference compound]
- IC50 (hERG potassium channels): 5.8 µM
- half-life at 1 μM [1]: 112 min
- non-toxic response dose level (ICR mice [3]): less than 200 mg/kg
- biochemical analysis of serum (ICR mice [3]): increase in TBIL
- clinical observation (ICR mice [3]; toxicity and toxicokinetic studies, 200 mg/kg): decreased activity, piloerection, cold skin when touched, arched-back posture and prone position were frequently observed
- animals found dead (ICR mice [3]; toxicity study, male animals, 200 mg/kg oral once a day for 14 days): 2/10
- AUC(0-inf) ([4]; plasma of female animals): 331 µg·h/mL
- Cmax ([4]; plasma of female animals): 104 µg/mL
- AUC(0-inf) ([4]; plasma of male animals): 254 µg·h/mL
- Cmax ([4]; plasma of male animals): 91 µg/mL
- AUC(0-t) [4, 7]: 338 µg·h/mL
- AUC(0-t) [4, 8]: 387 µg·h/mL
- animals found dead (ICR mice [5]; male animals): 4/14
